The values below come from PMC6437697 (Journal of Medicinal Chemistry, 2019).

Assay in all cases: KINOMEscan
Assay type in all cases: binding
Holding throughout (details): read-out: % control activity remaining

One experiment addresses T1, PRKG1 (Homo sapiens, UniProt Q13976).
T1 construct: purchased Eurofins DiscoverX KINOMEscan
T1 sequence (Q13976 1-671): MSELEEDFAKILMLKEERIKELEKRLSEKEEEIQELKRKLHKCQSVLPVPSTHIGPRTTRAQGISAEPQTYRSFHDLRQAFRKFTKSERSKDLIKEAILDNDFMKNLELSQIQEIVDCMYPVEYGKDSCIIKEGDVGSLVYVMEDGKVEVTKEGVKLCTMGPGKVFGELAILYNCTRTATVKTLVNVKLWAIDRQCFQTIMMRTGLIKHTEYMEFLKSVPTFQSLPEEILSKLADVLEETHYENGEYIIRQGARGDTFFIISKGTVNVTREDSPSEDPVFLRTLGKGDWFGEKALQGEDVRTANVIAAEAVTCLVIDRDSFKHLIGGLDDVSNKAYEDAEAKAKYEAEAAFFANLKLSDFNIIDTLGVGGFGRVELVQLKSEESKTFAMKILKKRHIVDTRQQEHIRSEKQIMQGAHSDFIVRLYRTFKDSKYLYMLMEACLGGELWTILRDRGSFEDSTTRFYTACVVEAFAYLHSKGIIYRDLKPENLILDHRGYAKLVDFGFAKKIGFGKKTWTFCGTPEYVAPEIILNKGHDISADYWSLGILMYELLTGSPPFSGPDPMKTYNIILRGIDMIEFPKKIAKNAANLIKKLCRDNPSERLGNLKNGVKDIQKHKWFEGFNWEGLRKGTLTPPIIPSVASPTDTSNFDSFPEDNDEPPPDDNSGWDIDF

In a further experiment the target is T2, MST2 (Homo sapiens, UniProt Q13188).
T2 construct: purchased Eurofins DiscoverX KINOMEscan
T2 sequence (Q13188 1-491): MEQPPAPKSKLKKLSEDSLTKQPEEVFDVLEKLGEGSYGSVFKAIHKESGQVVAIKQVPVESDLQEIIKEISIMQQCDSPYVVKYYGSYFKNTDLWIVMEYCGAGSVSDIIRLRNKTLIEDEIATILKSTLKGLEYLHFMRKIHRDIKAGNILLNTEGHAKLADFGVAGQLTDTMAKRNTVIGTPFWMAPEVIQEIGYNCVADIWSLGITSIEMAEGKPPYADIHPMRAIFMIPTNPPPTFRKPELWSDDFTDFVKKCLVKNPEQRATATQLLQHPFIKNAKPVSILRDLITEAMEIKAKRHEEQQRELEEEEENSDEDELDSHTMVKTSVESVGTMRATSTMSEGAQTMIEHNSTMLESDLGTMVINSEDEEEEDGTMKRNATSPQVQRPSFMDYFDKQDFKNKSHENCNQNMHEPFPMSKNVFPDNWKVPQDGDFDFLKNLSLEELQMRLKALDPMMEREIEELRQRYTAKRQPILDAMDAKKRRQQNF

A further experiment deals with T3, FRK (Homo sapiens, UniProt P42685).
T3 construct: purchased Eurofins DiscoverX KINOMEscan

The target of experiment [1] is T4, ABL1(F317L)-nonphosphorylated (Homo sapiens, UniProt P00519, F317L).
T4 construct: purchased Eurofins DiscoverX KINOMEscan

The target of another experiment is T5, MRCKA (Homo sapiens, UniProt Q5VT25).
T5 construct: purchased Eurofins DiscoverX KINOMEscan

A further experiment has as its target T6, EPHB4 (Homo sapiens, UniProt P54760).
T6 construct: purchased Eurofins DiscoverX KINOMEscan
T6 sequence (P54760 16-987): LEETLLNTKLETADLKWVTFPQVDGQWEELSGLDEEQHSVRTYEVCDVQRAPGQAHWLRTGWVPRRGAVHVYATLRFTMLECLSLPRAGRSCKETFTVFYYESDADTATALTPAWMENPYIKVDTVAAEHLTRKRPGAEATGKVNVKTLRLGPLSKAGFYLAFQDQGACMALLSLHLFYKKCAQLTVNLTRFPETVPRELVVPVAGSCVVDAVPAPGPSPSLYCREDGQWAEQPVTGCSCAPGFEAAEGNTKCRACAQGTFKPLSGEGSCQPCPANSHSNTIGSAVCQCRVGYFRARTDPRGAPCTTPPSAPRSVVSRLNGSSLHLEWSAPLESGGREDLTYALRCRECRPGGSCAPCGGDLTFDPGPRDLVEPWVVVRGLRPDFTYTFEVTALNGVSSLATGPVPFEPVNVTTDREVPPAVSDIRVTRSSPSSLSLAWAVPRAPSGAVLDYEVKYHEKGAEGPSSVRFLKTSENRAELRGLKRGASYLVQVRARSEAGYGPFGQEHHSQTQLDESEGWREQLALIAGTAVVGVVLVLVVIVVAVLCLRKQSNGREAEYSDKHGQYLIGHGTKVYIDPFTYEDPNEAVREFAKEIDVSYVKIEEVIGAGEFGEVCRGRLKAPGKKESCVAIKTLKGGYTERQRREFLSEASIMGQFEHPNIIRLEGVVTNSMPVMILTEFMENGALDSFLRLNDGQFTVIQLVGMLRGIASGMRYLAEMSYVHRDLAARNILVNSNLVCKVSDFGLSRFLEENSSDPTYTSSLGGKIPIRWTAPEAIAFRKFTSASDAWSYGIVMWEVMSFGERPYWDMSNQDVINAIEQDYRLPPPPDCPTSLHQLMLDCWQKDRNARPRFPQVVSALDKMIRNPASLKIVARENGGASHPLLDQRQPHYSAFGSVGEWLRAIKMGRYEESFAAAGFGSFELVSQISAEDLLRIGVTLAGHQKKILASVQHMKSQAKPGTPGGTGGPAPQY

Another experiment has as its target T7, TIE2 (Homo sapiens, UniProt Q02763).
T7 construct: purchased Eurofins DiscoverX KINOMEscan

A further experiment deals with T8, CLK1 (Homo sapiens, UniProt P49759).
T8 construct: purchased Eurofins DiscoverX KINOMEscan

For the next experiment, the target named is T9, CAMK2G (Homo sapiens, UniProt Q13555).
T9 construct: purchased Eurofins DiscoverX KINOMEscan

A further experiment has as its target T10, CDK4-cyclinD3 (Homo sapiens, UniProt P11802).
T10 construct: purchased Eurofins DiscoverX KINOMEscan

The target in another experiment is T11, CDKL3 (Homo sapiens, UniProt Q8IVW4).
T11 construct: purchased Eurofins DiscoverX KINOMEscan

The target in a further experiment is T12, PKAC-beta (Homo sapiens, UniProt P22694).
T12 construct: purchased Eurofins DiscoverX KINOMEscan

For another experiment, the target named is T13, ALK (Homo sapiens, UniProt Q9UM73).
T13 construct: purchased Eurofins DiscoverX KINOMEscan

T3 sequence (P42685 whole entry): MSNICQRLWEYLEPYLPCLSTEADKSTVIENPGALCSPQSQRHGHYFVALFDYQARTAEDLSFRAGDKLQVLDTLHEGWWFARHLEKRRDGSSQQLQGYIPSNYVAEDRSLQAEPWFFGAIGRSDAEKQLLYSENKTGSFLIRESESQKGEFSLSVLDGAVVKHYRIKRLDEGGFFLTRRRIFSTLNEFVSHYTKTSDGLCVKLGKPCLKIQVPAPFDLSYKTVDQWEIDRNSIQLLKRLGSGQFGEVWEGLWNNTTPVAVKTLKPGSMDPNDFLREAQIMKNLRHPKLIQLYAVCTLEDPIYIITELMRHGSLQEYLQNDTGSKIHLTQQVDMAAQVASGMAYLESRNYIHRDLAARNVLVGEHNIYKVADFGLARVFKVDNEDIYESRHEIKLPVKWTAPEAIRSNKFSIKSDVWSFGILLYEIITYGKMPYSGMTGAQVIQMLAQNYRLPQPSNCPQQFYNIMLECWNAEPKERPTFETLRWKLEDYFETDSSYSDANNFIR
T9 sequence (Q13555 whole entry): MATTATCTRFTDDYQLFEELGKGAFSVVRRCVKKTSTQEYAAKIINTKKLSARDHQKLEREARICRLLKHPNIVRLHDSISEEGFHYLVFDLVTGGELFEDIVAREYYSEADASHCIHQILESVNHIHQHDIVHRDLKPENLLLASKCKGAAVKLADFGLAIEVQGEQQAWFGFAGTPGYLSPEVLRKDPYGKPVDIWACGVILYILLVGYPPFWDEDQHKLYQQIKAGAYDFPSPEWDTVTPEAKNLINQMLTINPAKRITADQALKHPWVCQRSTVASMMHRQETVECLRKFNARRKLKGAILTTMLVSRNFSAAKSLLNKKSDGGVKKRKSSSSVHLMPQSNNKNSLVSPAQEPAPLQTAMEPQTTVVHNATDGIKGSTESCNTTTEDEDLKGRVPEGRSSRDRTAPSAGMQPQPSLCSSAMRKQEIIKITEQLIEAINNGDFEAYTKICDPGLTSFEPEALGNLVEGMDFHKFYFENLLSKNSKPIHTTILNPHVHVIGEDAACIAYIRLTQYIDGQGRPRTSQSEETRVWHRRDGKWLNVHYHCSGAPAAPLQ
T7 sequence (Q02763 23-1124): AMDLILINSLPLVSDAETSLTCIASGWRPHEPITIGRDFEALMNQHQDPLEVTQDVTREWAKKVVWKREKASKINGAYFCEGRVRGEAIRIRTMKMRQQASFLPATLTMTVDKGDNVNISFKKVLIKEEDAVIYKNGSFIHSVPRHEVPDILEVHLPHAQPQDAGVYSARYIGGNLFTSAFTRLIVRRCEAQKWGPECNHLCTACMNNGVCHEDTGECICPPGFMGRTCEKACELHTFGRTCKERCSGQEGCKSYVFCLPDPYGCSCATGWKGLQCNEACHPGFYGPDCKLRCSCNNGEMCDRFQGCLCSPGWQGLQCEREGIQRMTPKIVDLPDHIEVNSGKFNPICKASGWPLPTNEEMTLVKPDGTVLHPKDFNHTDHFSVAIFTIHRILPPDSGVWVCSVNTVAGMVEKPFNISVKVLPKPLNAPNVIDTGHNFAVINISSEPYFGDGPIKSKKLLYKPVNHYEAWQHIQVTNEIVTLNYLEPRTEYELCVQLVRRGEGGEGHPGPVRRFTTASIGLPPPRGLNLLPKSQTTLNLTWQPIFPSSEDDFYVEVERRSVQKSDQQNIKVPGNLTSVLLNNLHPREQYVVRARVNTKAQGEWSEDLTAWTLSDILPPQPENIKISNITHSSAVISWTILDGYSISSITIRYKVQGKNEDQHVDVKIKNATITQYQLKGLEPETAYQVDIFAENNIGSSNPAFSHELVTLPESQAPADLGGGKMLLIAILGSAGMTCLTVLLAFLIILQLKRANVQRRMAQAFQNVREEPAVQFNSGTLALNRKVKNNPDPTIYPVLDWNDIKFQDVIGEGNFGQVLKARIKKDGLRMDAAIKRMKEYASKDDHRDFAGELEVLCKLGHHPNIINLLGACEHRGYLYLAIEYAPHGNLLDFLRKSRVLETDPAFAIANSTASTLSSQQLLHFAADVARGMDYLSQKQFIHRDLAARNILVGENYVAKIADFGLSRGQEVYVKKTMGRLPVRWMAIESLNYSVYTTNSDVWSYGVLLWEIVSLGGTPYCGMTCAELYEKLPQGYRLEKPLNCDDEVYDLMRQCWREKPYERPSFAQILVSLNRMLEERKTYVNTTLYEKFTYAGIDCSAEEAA
T11 sequence (Q8IVW4 whole entry): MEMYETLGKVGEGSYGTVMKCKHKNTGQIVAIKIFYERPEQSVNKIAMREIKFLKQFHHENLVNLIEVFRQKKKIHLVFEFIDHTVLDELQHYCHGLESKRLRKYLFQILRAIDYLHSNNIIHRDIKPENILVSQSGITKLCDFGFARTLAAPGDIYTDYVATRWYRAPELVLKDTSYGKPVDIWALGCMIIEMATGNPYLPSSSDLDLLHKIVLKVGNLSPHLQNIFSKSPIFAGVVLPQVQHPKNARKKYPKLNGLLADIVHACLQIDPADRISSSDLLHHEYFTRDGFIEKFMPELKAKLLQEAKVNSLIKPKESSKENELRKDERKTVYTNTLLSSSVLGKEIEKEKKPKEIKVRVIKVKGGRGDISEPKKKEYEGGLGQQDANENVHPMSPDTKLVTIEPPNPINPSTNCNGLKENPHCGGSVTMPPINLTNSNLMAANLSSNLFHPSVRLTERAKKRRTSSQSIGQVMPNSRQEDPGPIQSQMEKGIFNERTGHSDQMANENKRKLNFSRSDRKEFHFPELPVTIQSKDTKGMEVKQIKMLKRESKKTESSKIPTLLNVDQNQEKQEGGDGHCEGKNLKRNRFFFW
T8 sequence (P49759 whole entry): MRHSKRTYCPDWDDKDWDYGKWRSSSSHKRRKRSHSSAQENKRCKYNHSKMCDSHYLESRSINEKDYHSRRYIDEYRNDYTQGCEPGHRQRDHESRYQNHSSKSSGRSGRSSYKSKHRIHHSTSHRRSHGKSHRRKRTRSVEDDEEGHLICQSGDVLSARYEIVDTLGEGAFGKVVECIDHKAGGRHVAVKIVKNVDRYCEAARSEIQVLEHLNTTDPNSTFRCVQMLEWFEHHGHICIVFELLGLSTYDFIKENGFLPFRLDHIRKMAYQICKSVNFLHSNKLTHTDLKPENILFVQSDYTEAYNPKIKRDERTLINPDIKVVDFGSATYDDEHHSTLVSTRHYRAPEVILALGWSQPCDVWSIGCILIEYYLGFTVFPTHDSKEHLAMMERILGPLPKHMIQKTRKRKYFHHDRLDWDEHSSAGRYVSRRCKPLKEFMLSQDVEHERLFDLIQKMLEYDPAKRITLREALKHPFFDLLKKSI
T4 sequence (P00519 whole entry F317L): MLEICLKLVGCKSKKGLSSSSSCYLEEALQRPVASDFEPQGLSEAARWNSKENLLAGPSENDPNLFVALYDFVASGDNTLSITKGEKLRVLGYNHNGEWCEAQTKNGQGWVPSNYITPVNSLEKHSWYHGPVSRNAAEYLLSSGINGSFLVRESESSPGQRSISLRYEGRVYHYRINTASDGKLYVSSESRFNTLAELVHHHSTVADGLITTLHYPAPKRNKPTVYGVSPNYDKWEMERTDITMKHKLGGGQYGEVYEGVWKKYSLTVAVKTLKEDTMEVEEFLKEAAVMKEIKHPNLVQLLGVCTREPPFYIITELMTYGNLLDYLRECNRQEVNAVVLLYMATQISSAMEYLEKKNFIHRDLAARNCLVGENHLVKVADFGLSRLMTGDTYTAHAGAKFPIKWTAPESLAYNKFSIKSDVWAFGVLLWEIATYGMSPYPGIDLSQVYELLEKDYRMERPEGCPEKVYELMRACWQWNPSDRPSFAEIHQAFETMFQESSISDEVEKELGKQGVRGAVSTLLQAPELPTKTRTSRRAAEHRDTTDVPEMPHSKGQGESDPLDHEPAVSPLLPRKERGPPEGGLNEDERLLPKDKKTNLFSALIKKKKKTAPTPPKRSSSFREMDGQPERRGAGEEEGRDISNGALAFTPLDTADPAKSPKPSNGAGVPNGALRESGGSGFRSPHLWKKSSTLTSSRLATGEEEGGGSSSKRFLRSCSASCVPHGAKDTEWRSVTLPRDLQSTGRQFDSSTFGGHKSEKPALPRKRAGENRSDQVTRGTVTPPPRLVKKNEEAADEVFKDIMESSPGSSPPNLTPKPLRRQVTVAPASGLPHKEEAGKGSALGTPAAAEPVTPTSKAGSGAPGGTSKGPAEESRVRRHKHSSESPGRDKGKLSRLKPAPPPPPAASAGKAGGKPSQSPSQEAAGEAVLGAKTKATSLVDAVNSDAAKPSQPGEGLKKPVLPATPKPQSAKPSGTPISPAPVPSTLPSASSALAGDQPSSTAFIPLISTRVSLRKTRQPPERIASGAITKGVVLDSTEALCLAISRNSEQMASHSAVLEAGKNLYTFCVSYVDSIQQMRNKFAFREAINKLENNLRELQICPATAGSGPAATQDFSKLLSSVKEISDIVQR
T10 sequence (P11802 whole entry): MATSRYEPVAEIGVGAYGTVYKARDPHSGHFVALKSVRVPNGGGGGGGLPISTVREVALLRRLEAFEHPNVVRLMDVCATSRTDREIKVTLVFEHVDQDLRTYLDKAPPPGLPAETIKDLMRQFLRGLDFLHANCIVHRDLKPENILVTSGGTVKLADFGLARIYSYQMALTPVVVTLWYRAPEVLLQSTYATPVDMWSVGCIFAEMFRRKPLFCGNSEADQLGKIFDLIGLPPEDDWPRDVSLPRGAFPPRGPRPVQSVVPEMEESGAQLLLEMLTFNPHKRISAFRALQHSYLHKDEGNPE
T10 sequence (P30281 whole entry partner): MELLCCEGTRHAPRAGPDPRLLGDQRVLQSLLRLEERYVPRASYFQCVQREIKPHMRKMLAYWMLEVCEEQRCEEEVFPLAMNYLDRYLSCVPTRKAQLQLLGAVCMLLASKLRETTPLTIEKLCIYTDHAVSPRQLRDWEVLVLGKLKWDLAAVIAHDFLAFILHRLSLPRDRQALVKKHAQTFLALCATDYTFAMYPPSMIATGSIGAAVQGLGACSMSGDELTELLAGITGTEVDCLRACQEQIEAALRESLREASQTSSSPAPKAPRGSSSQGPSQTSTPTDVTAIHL

`Clc1cc(NCC2CC2)c2ncc(-c3ccc4[nH]ncc4c3)n2n1` [compound 2, 6-Chloro-N-(cyclopropylmethyl)-3-(1H-indazol-5-yl)imidazo[1,2-b]pyridazin-8-amine]: the remaining binding at 1 µM was determined as 84% at PRKG1; 85% on MST2; 90% at FRK; 68% in experiment [1]; 90% at MRCKA; 79% at EPHB4. Further, the remaining binding at 1 µM came to 78% at TIE2; 4% on CLK1; 100% on CAMK2G; 78% at CDK4-cyclinD3; 100% at CDKL3; 86% on PKAC-beta. In addition, the remaining binding at 1 µM on ALK turned out to be 92%.

Turning to `O=C(CN1CCOCC1)N[C@H]1CC[C@H](Nc2cc(Cl)nn3c(-c4ccc5[nH]ncc5c4)cnc23)CC1` [compound 26], the remaining binding at 1 µM came out at 32% on PRKG1; 92% at MST2; 96% on FRK; 26% in [1]; 82% on MRCKA; 95% at EPHB4. Besides, the remaining binding at 1 µM on TIE2 came to 89%; at CLK1, 1.2%; at CAMK2G, 52%; on CDK4-cyclinD3, 100%; on CDKL3, 88%; at PKAC-beta, 99%. The remaining binding at 1 µM at ALK was determined as 94%.

Turning to `CN1CCC(CNc2cc(Cl)nn3c(-c4cc5nc(Nc6ccccc6)[nH]c5cc4F)cnc23)CC1` [compound 31, 6-Chloro-3-(6-fluoro-2-(phenylamino)-1H-benzo[d]imidazol-5-yl)-N-((1-methylpiperidin-4-yl)methyl)imidazo[1,2-b]pyridazin-8-amine], the remaining binding at 1 µM on PRKG1 is 83%; at MST2, 100%; at FRK it was 92%; in [1], 76%; on MRCKA, 97%; at EPHB4 it was 100%. Further, the remaining binding at 1 µM on TIE2 came to 91%; at CLK1 it was 16%; at CAMK2G, 100%; at CDK4-cyclinD3, 97%; at CDKL3, 90%; on PKAC-beta, 90%. Further, the remaining binding at 1 µM at ALK is 70%.
